According to patent US20210156846A1, “MICROFLUIDIC PLATFORM FOR TARGET AND BIOMARKER DISCOVERY FOR NON-ALCOHOLIC FATTY LIVER DISEASE” (Javelin Biotech, Inc., priority 2019, published 2021):

System: liver-adipose crosstalk MPSs
Assay: Disease severity in NAFLD liver-adipose crosstalk MPS after treatment
Assay type: cell-based, human
Details: MHM-induced NAFLD liver-adipose crosstalk MPS; no data shown
Procedure: The disease modifying potential of targets is evaluated using one or both of large and small molecules and functional genomics tools, such as CRISPR. For example, large molecules can include ligand antagonists, Humira (adalimumab) blocks, and TNF-α. Healthy and NAFLD liver-adipose MPSs are established previously described. Following disease induction, the liver-adipose MPSs are treated with small molecules (alone and in combination) or CRISPR short guide RNAs (sgRNAs) that modulate the activity or expression of disease-relevant signaling pathways (e.g. CCR2-5, FXR, PPARγ, PPARβ/δ, and PPARγ) as previously described in relation to FIG. 4. The dosing regimen are optimized using the efficacy data generated using the liver and adipose spheroids previously described. The disease-modifying potential of the therapeutic treatment regimens in the liver-adipose crosstalk MPS 120 are determined using phenotypic (e.g., IR, steatosis, steatohepatitis, and fibrosis) and biomarker (apoptosis, hepatokine, adipokine, cytokine) readouts.
In the liver-adipose MPS 120, MHM induces a NAFLD phenotype in the liver (e.g., oxidative stress, steatosis, and fibrosis) and adipose tissue (e.g., steatosis) compared to MPSs cultured in healthy medium. Clinical biomarkers of NAFLD (e.g., AST, ALT, cytokeratin-18) are elevated in diseased systems compared to healthy systems. […]

## CCCCOCCOc1ccc(-c2ccc3c(c2)/C=C(/C(=O)Nc2ccc([S@@+]([O-])Cc4cncn4CCC)cc2)CCCN3CC(C)C)cc1 [cenicriviroc]
  severity of the steatosis, fibrosis, and insulin resistance: reduce the severity

## CSc1ccc(C(=O)/C=C/c2cc(C)c(OC(C)(C)C(=O)O)c(C)c2)cc1 [elafibranor]
  severity of the steatosis, fibrosis, and insulin resistance: reduce the severity
